Source: US20240336604A1 (THE UNITED STATES OF AMERICA, AS REPRESENTED BY THE …, priority 2021, published 2024)

Key:
D3 DAR [1] = biological target: T1, D3 DAR (Homo sapiens, UniProt P35462); assay: Functional curve-shift assays using the DiscoverX β-arrestin recruitment assay; format: cell-based; set-up: host or cells: CHO; conditions: for IC50: agonist dopamine, read-out: Functional IC50 for decreasing the Emax of dopamine; for mode of antagonism in curve-shift assays: versus agonist (dopamine, pramipexole)
Text: To further assess the mechanism of action of Cmp. […] 1 (FIGS. 4B and 4D). […] Average curves are shown (mean±SEM from at least 3 experiments each performed in triplicate). […] In contrast, increasing concentrations of Cmp.
1. FIG. 6A-C panels show concentration-response curves of dopamine in the absence or presence of increasing concentrations of compound. Cmp. […] 18 (FIG. 6A), Cmp. 5 (FIG. 6B), and Cmp. 17 (FIG. 6C), respectively. Average curves are shown (mean±SEM from at least 3 experiments, each performed in triplicate).
(§1) A D3 DAR β-arrestin cell line from DiscoverX (Fremont, CA) was used as described in the protocol below (Table 2). A CHO cell line engineered to overexpress the D3 DAR fused with a small 42-amino acid fragment of β-galactosidase called ProLink™ and a fusion protein consisting of β-arrestin and a larger N-terminal deletion mutant of β-galactosidase was used (DiscoverX catalogue number 93-0579C2). When the D3 DAR is activated by dopamine, it stimulates binding of β-arrestin to ProLink-tagged D3 DARs, and the two complementary parts of β-galactosidase form a functional enzyme. When substrate (PathHunter® Detection reagent, DiscoverX 93-0001) is added, β-galactosidase hydrolyzes it and generates a chemiluminescent signal.

D3 DAR [2] = biological target: T1, D3 DAR; assay: Go BRET activation assay, D3 DAR; format: cell-based; conditions: EC80 DA (30 nM); for Emax: 5 min, read-out: D3 Go BRET Imax
Method: Briefly, HEK293T cells transiently expressing either the D2 DAR or D3 DAR and GαoA-Rluc8, untagged-β1, and mVenus-γ2 were harvested with EBSS, plated in 96-well white plates at 20,000 cells/well in DPBS and incubated at RT for 45 min. […] BRET signal was determined by quantifying and calculating the ratio of the light emitted by mVenus (525 nm) over that emitted by RLuc8 (485 nm) using a PHERAstar FSX Microplate Reader (BMG Labtech).

D2 DAR = D2 DAR (Homo sapiens, UniProt P14416); assay: DiscoverX D2 DAR β-arrestin recruitment assay; format: cell-based; set-up: host or cells: CHO; conditions: for D2 DAR Imax / IC50: EC80 concentration of DA (1 μM)
Text: For a secondary-screen and selectivity assays, DAR PathHunter®-arrestin GPCR cell lines from DiscoverX (Fremont, CA) were used. In the D2 DAR PathHunter®-arrestin GPCR cell line, the D2 DAR is overexpressed and fused with a small 42-amino acid fragment of β-galactosidase called ProLink™ on a CHO cellular background expressing a fusion protein of β-arrestin and a larger N-terminal deletion mutant of β-galactosidase (“enzyme acceptor”). When the D2 DAR is activated by dopamine, it stimulates binding of β-arrestin to the ProLink-tagged DAR and the two complementary parts of β-galactosidase form a functional enzyme. When substrate (PathHunter™ Detection reagent) is added, β-galactosidase hydrolyzes it and generates a chemiluminescent signal.

D3 DAR [3] = biological target: T1, D3 DAR; assay: DiscoverX D3 DAR β-arrestin recruitment assay; format: cell-based; set-up: host or cells: CHO
Text: as §1

D3 DAR [4] = biological target: T1, D3 DAR; assay: [3H]-methylspiperone radioligand binding assay; conditions: single high 40 μM concentration
Method: Compounds were tested for their ability to compete with the orthosteric radioligand [^3H]-methylspiperone for binding to the D3 DAR using HEK cells transiently transfected with the D3 DAR as described in the detailed protocol below presented in Table 5. Cells were cultured in Dulbecco's modified Eagle's Medium (Corning, catalogue no. 10-013) containing 10% FBS, 1,000 units/mL Penicillin, […] Streptomycin, 100 mM sodium pyruvate, 1 μg/mL Gentamicin, and […] G418. All cells were maintained at 37° C. in 5% CO2 and 90% humidity. For radioligand binding assays cells were removed mechanically using calcium-free Earle's balanced salt solution (EBSS). Intact cells were collected by centrifugation and then lysed with 5 mM Tris-HCl and 5 mM MgCl2 at pH 7.4. Homogenates were centrifuged at 30,000×g for 30 minutes. The membranes were re-suspended in EBSS (US Biological, catalogue no. E0249-05) pH 7.4 to a concentration of 16 μg/mL. For competition binding studies, membrane preparations were incubated for 90 minutes at room temperature with various concentrations of compound and a single concentration of [^3H]-methylspiperone (Perkin Elmer, NET856) in a reaction volume of […]. Non-specific binding was determined in the presence of 4 μM (+)-butaclamol (Sigma-Aldrich, catalogue no. D033). Bound ligand was separated from unbound by filtration through GF/C filters using a PerkinElmer cell harvester and quantified on a Top-count (PerkinElmer). Ki values were determined using Cheng-Prusoff equation from observed IC50 values and ligand Kd values from separate saturation experiments.

[5] = EC80 concentration of DA (30 nM), read-out: D3 DAR IC50
[6] = Imax=maximum inhibition, EC80 DA (30 nM)

D2 DAR, sequence (P14416 whole entry, the tested form may be a part): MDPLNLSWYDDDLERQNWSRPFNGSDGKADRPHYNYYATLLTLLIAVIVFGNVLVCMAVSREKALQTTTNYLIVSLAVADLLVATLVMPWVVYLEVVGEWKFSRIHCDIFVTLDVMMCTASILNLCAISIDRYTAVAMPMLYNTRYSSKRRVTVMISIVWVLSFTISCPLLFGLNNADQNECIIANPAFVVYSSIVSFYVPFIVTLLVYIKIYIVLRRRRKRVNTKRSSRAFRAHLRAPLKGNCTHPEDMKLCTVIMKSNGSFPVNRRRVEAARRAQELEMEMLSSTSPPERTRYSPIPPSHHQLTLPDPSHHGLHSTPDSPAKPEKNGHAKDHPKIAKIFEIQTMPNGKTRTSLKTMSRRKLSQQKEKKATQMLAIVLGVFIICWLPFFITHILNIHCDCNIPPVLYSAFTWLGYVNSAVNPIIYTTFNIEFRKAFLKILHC
T1 sequence (P35462 whole entry): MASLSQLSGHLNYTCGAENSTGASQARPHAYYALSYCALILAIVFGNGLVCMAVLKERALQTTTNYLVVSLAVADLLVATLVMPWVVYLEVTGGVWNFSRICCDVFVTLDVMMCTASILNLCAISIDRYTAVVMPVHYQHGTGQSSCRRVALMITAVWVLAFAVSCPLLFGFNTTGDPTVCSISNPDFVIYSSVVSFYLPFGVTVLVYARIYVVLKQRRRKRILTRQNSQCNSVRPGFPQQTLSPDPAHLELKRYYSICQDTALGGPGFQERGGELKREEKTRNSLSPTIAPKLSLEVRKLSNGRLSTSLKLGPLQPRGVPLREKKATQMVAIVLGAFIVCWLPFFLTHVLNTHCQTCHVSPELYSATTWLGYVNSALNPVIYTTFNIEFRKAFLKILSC

Compound	IC50 (D3 DAR [1])	mode of antagonism in curve-shift assays (D3 DAR [1])	Emax (D3 DAR [2])	IC50 (D3 DAR [2])	D2 DAR Imax (D2 DAR)	IC50 (D2 DAR)	IC50 (D3 DAR [3]; [5])	Emax (D3 DAR [3]; [6])	D3 DAR Imax (D3 DAR [3]; [6])	inhibition of [3H]-methylspiperone binding to the D3 DAR (D3 DAR [4])	antagonism of dopamine activation of the D2 DAR (D2 DAR; DiscoverX β-arrestin assay, FIG. 2B)	IC50 (D3 DAR [3]; DiscoverX β-arrestin assay, FIG. 1A, 2A, read-out: IC50, inhibition of dopamine-stimulated β-arrestin recruitment to the D3 DAR)
Cc1[nH]c(C)c(S(=O)(=O)Nc2ccc(C(F)(F)F)c(Cl)c2)c1C(=O)N1CCCC1 [Cmp. 5]	2.3 µM	noncompetitive antagonism	80 to 100%	1 to 10 µM	NA (“NA” indicates not active)	> 100 µM	< 10 µM	80 to 100%	–	–	–	–
CCN1CCCC1CNC(=O)c1cc(S(N)(=O)=O)ccc1OC (stereo not drawn) [sulpiride, reference compound]	–	behaves in a competitive manner	–	–	–	–	–	–	–	–	–	–
Cc1[nH]c(C)c(S(=O)(=O)Nc2ccc(C(F)(F)F)c(Cl)c2)c1C(=O)N1CCNCC1.Cl [compound 20, N-(3-chloro-4-(trifluoromethyl)phenyl)-2,5-dimethyl-4-(piperazine-1-carbonyl)-1H-pyrrole-3-sulfonamide]	–	–	–	> 50 µM	NA (“NA” indicates not active)	> 100 µM	50 to 100 µM	–	Curve Incomplete	–	–	–
CCc1ccc(NS(=O)(=O)c2c(C)[nH]c(C)c2C(=O)N2CCCC2)cc1Cl [compound 8]	–	–	80 to 100%	1 to 10 µM	NA (“NA” indicates not active)	> 100 µM	10 to 50 µM	80 to 100%	–	–	–	–
Cc1[nH]c(C)c(S(=O)(=O)Nc2cc(Cl)cc(C(F)(F)F)c2)c1C(=O)N1CCC(F)(F)C1 [compound 40, N-(3-chloro-5-(trifluoromethyl)phenyl)-4-(3,3-difluoropyrrolidine-1-carbonyl)-2,5-dimethyl-1H-pyrrole-3-sulfonamide]	–	–	> 100%	10 to 50 µM	NA (“NA” indicates not active)	> 100 µM	10 to 50 µM	80 to 100%	–	–	–	–
Cc1ccc(NS(=O)(=O)c2c(C)[nH]c(C)c2C(=O)N2CCC2)cc1Cl [compound 6]	–	–	> 100%	10 to 50 µM	NA (“NA” indicates not active)	> 100 µM	10 to 50 µM	80 to 100%	–	–	–	–
Cc1ccc(NS(=O)(=O)c2c(C)[nH]c(C)c2C(=O)N2CCC(F)(F)C2)cc1Cl [Cmp. 2]	–	–	> 100%	10 to 50 µM	NA (“NA” indicates not active)	> 100 µM	10 to 50 µM	80 to 100%	–	–	–	–
Cc1[nH]c(C)c(S(=O)(=O)Nc2ccc(F)c(Cl)c2)c1C(=O)N1CCCC1 [compound 13]	–	–	> 100%	10 to 50 µM	NA (“NA” indicates not active)	> 100 µM	10 to 50 µM	80 to 100%	–	–	–	–
O=C(c1c(S(=O)(=O)Nc2ccc(C(F)(F)F)c(Cl)c2)c[nH]c1C(F)(F)F)N1CCCC1 [compound 37]	–	–	–	> 50 µM	NA (“NA” indicates not active)	> 100 µM	10 to 50 µM	80 to 100%	–	–	–	–
Cc1ccc(NS(=O)(=O)c2c(C)[nH]c(C(F)(F)F)c2C(=O)N2CCCC2)cc1Cl [compound 38]	–	–	> 100%	1 to 10 µM	NA (“NA” indicates not active)	> 100 µM	< 10 µM	80 to 100%	–	–	–	–
Cc1ccc(NS(=O)(=O)c2c(C)[nH]c(C)c2C(=O)N2CCCC2C)cc1Cl (stereo not drawn) [compound 3]	–	–	> 100%	1 to 10 µM	NA (“NA” indicates not active)	> 100 µM	10 to 50 µM	80 to 100%	–	–	–	–
Cc1ccc(NS(=O)(=O)c2c(C)[nH]c(C)c2C(=O)N2CCCC2)cc1 [compound 10]	–	–	–	> 50 µM	NA (“NA” indicates not active)	> 100 µM	10 to 50 µM	80 to 100%	–	–	–	–
Cc1[nH]c(C)c(S(=O)(=O)Nc2ccc(Cl)cc2C(F)(F)F)c1C(=O)N1CCC(F)(F)C1 [compound 42]	–	–	> 100%	10 to 50 µM	NA (“NA” indicates not active)	> 100 µM	10 to 50 µM	80 to 100%	–	–	–	–
Cc1[nH]c(C)c(S(=O)(=O)Nc2ccc(S(F)(F)(F)(F)F)cc2)c1C(=O)N1CCC(F)(F)C1 [compound 28]	–	–	80 to 100%	1 to 10 µM	NA (“NA” indicates not active)	> 100 µM	< 10 µM	80 to 100%	–	–	–	–
Cc1[nH]c(C)c(S(=O)(=O)Nc2ccc(C(F)(F)F)c(Cl)c2)c1C(=O)N1CC(F)(F)C(F)(F)C1 [compound 27, N-(3-chloro-4-(trifluoromethyl)phenyl)-2,5-dimethyl-4-(3,3,4,4-tetrafluoropyrrolidine-1-carbonyl)-1H-pyrrole-3-sulfonamide]	–	–	> 100%	1 to 10 µM	NA (“NA” indicates not active)	> 100 µM	10 to 50 µM	80 to 100%	–	–	–	–
Cc1cccc(CNC(=O)c2sc(=O)n(Cc3c(C)cccc3C)c2C)c1 [Cmp. 26]	–	–	–	–	NA (“NA” indicates not active)	> 100 µM	10 to 50 µM	80 to 100%	–	neither compound exhibited measurable ability to inhibit the binding	lacks ability to antagonize dopamine activation	~30 µM
Cc1[nH]c(C)c(S(=O)(=O)Nc2ccc(C(F)(F)F)c(Br)c2)c1C(=O)N1CCCC1 [Cmp. 18]	3.6 µM	noncompetitive antagonism	80 to 100%	> 50 µM	NA (“NA” indicates not active)	> 100 µM	< 10 µM	80 to 100%	–	–	–	–
CCNC(=O)c1c(C)[nH]c(C)c1S(=O)(=O)Nc1ccc(C(F)(F)F)c(Cl)c1 [compound 33, 4-(N-(3-chloro-4-(trifluoromethyl)phenyl)sulfamoyl)-N-ethyl-2,5-dimethyl-1H-pyrrole-3-carboxamide]	–	–	> 100%	10 to 50 µM	NA (“NA” indicates not active)	> 100 µM	< 10 µM	80 to 100%	–	–	–	–
Cc1[nH]c(C)c(S(=O)(=O)Nc2cccc(Cl)c2)c1C(=O)N1CCCC1 [compound 14]	–	–	> 100%	1 to 10 µM	NA (“NA” indicates not active)	> 100 µM	10 to 50 µM	80 to 100%	–	–	–	–
CCc1[nH]c(CC)c(S(=O)(=O)Nc2ccc(C(F)(F)F)c(Cl)c2)c1C(=O)N1CCCC1 [compound 39, N-(3-chloro-4-(trifluoromethyl)phenyl)-2,5-diethyl-4-(pyrrolidine-1-carbonyl)-1H-pyrrole-3-sulfonamide]	–	–	> 100%	1 to 10 µM	NA (“NA” indicates not active)	> 100 µM	10 to 50 µM	80 to 100%	–	–	–	–
